# Data published in the NIST ThermoML archive (doi:10.1016/j.jct.2005.05.008).
# Numbers after ± are expanded uncertainties.
# Assay: an = ratio of the nth substance listed, in mol/kg
# Settings: 101 kPa, Liquid, Vibrating tube method
smiles,measurement,setting,value
C[N+](C)(C)C.[O-][Cl+3]([O-])([O-])[O-] [tetramethylammonium perchlorate] + CN(C)C=O,mass density,"283.15 K, a1 = 0.01523",958.937 ± 0.27 kg/m3
same,mass density,"283.15 K, a1 = 0.01902",959.151 ± 0.27 kg/m3
same,mass density,"283.15 K, a1 = 0.02912",959.718 ± 0.27 kg/m3
same,mass density,"283.15 K, a1 = 0.03309",959.941 ± 0.27 kg/m3
same,mass density,"283.15 K, a1 = 0.03853",960.244 ± 0.27 kg/m3
same,mass density,"283.15 K, a1 = 0.04774",960.757 ± 0.27 kg/m3
same,mass density,"283.15 K, a1 = 0.05313",961.055 ± 0.27 kg/m3
same,mass density,"283.15 K, a1 = 0.0674",961.841 ± 0.27 kg/m3
same,mass density,"283.15 K, a1 = 0.08195",962.642 ± 0.27 kg/m3
same,mass density,"283.15 K, a1 = 0.09648",963.443 ± 0.27 kg/m3
same,mass density,"293.15 K, a1 = 0.01523",949.438 ± 0.27 kg/m3
same,mass density,"293.15 K, a1 = 0.01902",949.656 ± 0.27 kg/m3
same,mass density,"293.15 K, a1 = 0.02912",950.233 ± 0.27 kg/m3
same,mass density,"293.15 K, a1 = 0.03309",950.46 ± 0.27 kg/m3
same,mass density,"293.15 K, a1 = 0.03853",950.768 ± 0.27 kg/m3
same,mass density,"293.15 K, a1 = 0.04774",951.288 ± 0.27 kg/m3
same,mass density,"293.15 K, a1 = 0.05313",951.59 ± 0.27 kg/m3
same,mass density,"293.15 K, a1 = 0.0674",952.388 ± 0.27 kg/m3
same,mass density,"293.15 K, a1 = 0.08195",953.2 ± 0.27 kg/m3
same,mass density,"293.15 K, a1 = 0.09648",954.007 ± 0.27 kg/m3
same,mass density,"298.15 K, a1 = 0.01523",944.682 ± 0.27 kg/m3
same,mass density,"298.15 K, a1 = 0.01902",944.901 ± 0.27 kg/m3
same,mass density,"298.15 K, a1 = 0.02912",945.481 ± 0.27 kg/m3
same,mass density,"298.15 K, a1 = 0.03309",945.71 ± 0.27 kg/m3
same,mass density,"298.15 K, a1 = 0.03853",946.019 ± 0.27 kg/m3
same,mass density,"298.15 K, a1 = 0.04774",946.545 ± 0.27 kg/m3
same,mass density,"298.15 K, a1 = 0.05313",946.848 ± 0.27 kg/m3
same,mass density,"298.15 K, a1 = 0.0674",947.652 ± 0.27 kg/m3
same,mass density,"298.15 K, a1 = 0.08195",948.469 ± 0.27 kg/m3
same,mass density,"298.15 K, a1 = 0.09648",949.284 ± 0.27 kg/m3
same,mass density,"303.15 K, a1 = 0.01523",939.914 ± 0.27 kg/m3
same,mass density,"303.15 K, a1 = 0.01902",940.135 ± 0.27 kg/m3
same,mass density,"303.15 K, a1 = 0.02912",940.72 ± 0.27 kg/m3
same,mass density,"303.15 K, a1 = 0.03309",940.951 ± 0.27 kg/m3
same,mass density,"303.15 K, a1 = 0.03853",941.262 ± 0.27 kg/m3
same,mass density,"303.15 K, a1 = 0.04774",941.792 ± 0.27 kg/m3
same,mass density,"303.15 K, a1 = 0.05313",942.097 ± 0.27 kg/m3
same,mass density,"303.15 K, a1 = 0.0674",942.907 ± 0.27 kg/m3
same,mass density,"303.15 K, a1 = 0.08195",943.731 ± 0.27 kg/m3
same,mass density,"303.15 K, a1 = 0.09648",944.551 ± 0.27 kg/m3
same,mass density,"313.15 K, a1 = 0.01523",930.347 ± 0.26 kg/m3
same,mass density,"313.15 K, a1 = 0.01902",930.572 ± 0.26 kg/m3
same,mass density,"313.15 K, a1 = 0.02912",931.168 ± 0.26 kg/m3
same,mass density,"313.15 K, a1 = 0.03309",931.402 ± 0.26 kg/m3
same,mass density,"313.15 K, a1 = 0.03853",931.719 ± 0.26 kg/m3
same,mass density,"313.15 K, a1 = 0.04774",932.257 ± 0.26 kg/m3
same,mass density,"313.15 K, a1 = 0.05313",932.568 ± 0.26 kg/m3
same,mass density,"313.15 K, a1 = 0.0674",933.392 ± 0.26 kg/m3
same,mass density,"313.15 K, a1 = 0.08195",934.229 ± 0.26 kg/m3
same,mass density,"313.15 K, a1 = 0.09648",935.06 ± 0.27 kg/m3
same,mass density,"323.15 K, a1 = 0.01523",920.732 ± 0.26 kg/m3
same,mass density,"323.15 K, a1 = 0.01902",920.962 ± 0.26 kg/m3
same,mass density,"323.15 K, a1 = 0.02912",921.569 ± 0.26 kg/m3
same,mass density,"323.15 K, a1 = 0.03309",921.807 ± 0.26 kg/m3
same,mass density,"323.15 K, a1 = 0.03853",922.13 ± 0.26 kg/m3
same,mass density,"323.15 K, a1 = 0.04774",922.676 ± 0.26 kg/m3
same,mass density,"323.15 K, a1 = 0.05313",922.995 ± 0.26 kg/m3
same,mass density,"323.15 K, a1 = 0.0674",923.831 ± 0.26 kg/m3
same,mass density,"323.15 K, a1 = 0.08195",924.679 ± 0.26 kg/m3
same,mass density,"323.15 K, a1 = 0.09648",925.524 ± 0.26 kg/m3
same,mass density,"333.15 K, a1 = 0.01523",911.066 ± 0.26 kg/m3
same,mass density,"333.15 K, a1 = 0.01902",911.299 ± 0.26 kg/m3
same,mass density,"333.15 K, a1 = 0.02912",911.916 ± 0.26 kg/m3
same,mass density,"333.15 K, a1 = 0.03309",912.157 ± 0.26 kg/m3
same,mass density,"333.15 K, a1 = 0.03853",912.486 ± 0.26 kg/m3
same,mass density,"333.15 K, a1 = 0.04774",913.042 ± 0.26 kg/m3
same,mass density,"333.15 K, a1 = 0.05313",913.365 ± 0.26 kg/m3
same,mass density,"333.15 K, a1 = 0.0674",914.216 ± 0.26 kg/m3
same,mass density,"333.15 K, a1 = 0.08195",915.082 ± 0.26 kg/m3
same,mass density,"333.15 K, a1 = 0.09648",915.939 ± 0.26 kg/m3
